Data published in the kinase profiling compilation of Christmann-Franck et al. (2016).

Columns and labels:
Experiment in all cases: radiometric filter-binding kinase assay, Kinase HotSpot
Conditions in all cases: compound 0.5 µM; ATP 10 µM
TEK (human) = TEK (human) (UniProt Q02763)
ULK1 (human) = ULK1 (human) (UniProt O75385)
CDK7 CCNH MNAT1 (human) = CDK7 CCNH MNAT1 (human) (UniProt P50613+P51948+P51946)
GRK4 (human) = GRK4 (human) (UniProt P32298)
CSNK1E (human) = CSNK1E (human) (UniProt P49674)
MAP3K11 (human) = MAP3K11 (human) (UniProt Q16584)
CDK9 CCNK (human) = CDK9 CCNK (human) (UniProt O75909+P50750)
HIPK2 (human) = HIPK2 (human) (UniProt Q9H2X6)
Chain of HIPK2 (human) (Q9H2X6 whole entry, looked up): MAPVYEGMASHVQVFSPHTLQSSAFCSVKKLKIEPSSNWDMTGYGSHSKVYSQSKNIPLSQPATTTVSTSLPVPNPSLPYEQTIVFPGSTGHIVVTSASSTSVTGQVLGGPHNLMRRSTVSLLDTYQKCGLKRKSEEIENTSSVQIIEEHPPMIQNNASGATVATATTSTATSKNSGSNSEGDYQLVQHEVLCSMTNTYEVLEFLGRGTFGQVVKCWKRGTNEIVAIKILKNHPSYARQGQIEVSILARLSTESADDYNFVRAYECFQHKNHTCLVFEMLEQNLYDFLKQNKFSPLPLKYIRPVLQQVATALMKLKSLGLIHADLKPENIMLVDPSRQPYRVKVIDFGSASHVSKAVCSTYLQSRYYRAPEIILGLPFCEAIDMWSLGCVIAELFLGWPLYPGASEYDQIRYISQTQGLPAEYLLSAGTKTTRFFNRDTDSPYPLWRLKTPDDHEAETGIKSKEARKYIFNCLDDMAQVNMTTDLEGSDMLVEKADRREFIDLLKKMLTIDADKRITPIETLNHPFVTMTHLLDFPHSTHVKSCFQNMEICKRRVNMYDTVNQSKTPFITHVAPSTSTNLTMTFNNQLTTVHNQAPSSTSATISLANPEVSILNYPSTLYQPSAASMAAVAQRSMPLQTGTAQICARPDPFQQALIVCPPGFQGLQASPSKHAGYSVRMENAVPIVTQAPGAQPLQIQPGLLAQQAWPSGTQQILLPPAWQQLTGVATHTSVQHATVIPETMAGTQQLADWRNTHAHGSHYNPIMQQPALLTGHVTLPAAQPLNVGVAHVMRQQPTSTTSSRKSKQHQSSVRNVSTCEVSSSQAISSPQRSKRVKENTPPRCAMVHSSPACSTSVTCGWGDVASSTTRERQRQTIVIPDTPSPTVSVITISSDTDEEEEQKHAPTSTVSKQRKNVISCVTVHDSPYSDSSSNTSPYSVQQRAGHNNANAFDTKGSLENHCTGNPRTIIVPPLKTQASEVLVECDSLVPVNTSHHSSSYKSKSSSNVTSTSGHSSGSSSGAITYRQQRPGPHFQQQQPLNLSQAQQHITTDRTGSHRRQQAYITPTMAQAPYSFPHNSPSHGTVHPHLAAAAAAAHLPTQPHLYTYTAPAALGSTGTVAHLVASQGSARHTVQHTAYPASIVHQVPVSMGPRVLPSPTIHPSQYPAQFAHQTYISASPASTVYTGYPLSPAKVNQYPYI

PRKACA (human) = PRKACA (human) (UniProt P17612)
ABL1 (human) = ABL1 (human) (UniProt P00519)
CAMK4 (human) = CAMK4 (human) (UniProt Q16566)
CAMK2G (human) = CAMK2G (human) (UniProt Q13555)
SGK2 (human) = SGK2 (human) (UniProt Q9HBY8)
Chain of SGK2 (human) (Q9HBY8 whole entry, looked up): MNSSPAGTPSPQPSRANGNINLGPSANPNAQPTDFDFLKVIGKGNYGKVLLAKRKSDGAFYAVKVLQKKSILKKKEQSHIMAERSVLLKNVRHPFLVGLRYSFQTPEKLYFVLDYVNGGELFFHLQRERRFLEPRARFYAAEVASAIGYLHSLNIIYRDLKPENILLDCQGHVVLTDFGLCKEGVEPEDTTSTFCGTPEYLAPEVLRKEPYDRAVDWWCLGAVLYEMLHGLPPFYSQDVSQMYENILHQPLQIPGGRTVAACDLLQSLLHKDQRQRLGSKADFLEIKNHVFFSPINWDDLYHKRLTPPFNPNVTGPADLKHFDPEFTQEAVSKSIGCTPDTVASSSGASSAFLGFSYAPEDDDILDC

BRSK2 (human) = BRSK2 (human) (UniProt Q8IWQ3)
ROCK1 (human) = ROCK1 (human) (UniProt Q13464)
SRPK2 (human) = SRPK2 (human) (UniProt P78362)
DYRK2 (human) = DYRK2 (human) (UniProt Q92630)
RPS6KA6 KD1 KD2 (human) = RPS6KA6 KD1 KD2 (human) (UniProt Q9UK32)
FGFR3 (human) = FGFR3 (human) (UniProt P22607)
RPS6KB2 (human) = RPS6KB2 (human) (UniProt Q9UBS0)
CLK3 (human) = CLK3 (human) (UniProt P49761)
DYRK3 (human) = DYRK3 (human) (UniProt O43781)
MAP3K10 (human) = MAP3K10 (human) (UniProt Q02779)
BTK (human) = BTK (human) (UniProt Q06187)
STK10 (human) = STK10 (human) (UniProt O94804)
CSNK1A1 (human) = CSNK1A1 (human) (UniProt P48729)
Chain of CSNK1A1 (human) (P48729 whole entry, looked up): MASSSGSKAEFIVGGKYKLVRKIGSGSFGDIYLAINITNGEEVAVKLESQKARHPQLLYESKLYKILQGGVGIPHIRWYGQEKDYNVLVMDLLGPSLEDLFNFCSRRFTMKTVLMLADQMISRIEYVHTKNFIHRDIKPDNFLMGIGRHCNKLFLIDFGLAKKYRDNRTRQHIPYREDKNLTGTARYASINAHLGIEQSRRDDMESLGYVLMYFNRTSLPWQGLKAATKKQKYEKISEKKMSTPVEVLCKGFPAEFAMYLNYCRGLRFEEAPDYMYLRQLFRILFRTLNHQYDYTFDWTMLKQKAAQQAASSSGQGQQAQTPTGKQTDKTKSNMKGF

CSNK2A1 (human) = CSNK2A1 (human) (UniProt P68400)
Chain of CSNK2A1 (human) (P68400 whole entry, looked up): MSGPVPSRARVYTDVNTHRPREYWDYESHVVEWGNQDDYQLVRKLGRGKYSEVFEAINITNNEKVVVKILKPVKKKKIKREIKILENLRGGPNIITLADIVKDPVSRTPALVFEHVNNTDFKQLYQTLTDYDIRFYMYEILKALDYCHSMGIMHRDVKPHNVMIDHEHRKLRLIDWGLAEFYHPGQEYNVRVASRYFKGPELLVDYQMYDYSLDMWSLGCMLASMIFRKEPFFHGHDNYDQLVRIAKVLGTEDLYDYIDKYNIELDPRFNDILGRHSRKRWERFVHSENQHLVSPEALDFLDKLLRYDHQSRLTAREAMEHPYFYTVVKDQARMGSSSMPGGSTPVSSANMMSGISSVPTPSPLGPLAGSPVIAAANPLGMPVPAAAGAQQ

MAP3K3 (human) = MAP3K3 (human) (UniProt Q99759)
RIPK2 (human) = RIPK2 (human) (UniProt O43353)
ACVRL1 (human) = ACVRL1 (human) (UniProt P37023)
GSK3B (human) = GSK3B (human) (UniProt P49841)
EPHA4 (human) = EPHA4 (human) (UniProt P54764)
ERBB2 (human) = ERBB2 (human) (UniProt P04626)
Chain of ERBB2 (human) (P04626 whole entry, looked up): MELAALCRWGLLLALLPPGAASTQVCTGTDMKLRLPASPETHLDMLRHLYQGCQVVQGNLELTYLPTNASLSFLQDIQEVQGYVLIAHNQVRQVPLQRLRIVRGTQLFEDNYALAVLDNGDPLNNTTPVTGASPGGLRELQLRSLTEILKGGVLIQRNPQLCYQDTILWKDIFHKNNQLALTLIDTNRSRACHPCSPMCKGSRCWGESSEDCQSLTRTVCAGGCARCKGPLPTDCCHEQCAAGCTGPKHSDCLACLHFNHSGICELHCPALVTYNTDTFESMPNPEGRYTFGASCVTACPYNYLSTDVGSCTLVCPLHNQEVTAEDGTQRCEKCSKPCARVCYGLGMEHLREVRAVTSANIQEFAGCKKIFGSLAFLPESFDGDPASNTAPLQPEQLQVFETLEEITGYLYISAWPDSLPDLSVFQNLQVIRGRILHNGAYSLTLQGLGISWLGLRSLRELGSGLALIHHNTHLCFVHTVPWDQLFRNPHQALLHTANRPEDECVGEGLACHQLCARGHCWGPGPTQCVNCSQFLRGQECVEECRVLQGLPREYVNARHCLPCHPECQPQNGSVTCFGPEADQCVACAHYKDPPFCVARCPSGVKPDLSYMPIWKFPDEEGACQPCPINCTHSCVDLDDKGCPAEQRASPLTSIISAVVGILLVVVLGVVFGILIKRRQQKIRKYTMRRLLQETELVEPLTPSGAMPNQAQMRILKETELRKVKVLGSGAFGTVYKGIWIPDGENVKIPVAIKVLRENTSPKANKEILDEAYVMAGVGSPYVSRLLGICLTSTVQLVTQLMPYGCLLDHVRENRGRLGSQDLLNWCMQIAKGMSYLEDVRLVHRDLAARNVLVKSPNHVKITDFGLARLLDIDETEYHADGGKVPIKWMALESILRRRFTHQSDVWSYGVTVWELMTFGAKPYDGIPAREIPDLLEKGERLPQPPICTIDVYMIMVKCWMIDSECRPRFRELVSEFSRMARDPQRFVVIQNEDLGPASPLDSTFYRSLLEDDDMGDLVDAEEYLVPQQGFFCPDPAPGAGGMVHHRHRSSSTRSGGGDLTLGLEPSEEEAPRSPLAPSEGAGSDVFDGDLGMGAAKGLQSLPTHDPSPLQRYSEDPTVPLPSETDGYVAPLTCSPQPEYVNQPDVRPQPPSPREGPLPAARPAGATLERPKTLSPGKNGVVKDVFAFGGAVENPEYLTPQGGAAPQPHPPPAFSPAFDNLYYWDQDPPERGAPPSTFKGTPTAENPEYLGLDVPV

DYRK4 (human) = DYRK4 (human) (UniProt Q9NR20)
PNCK (human) = PNCK (human) (UniProt Q6P2M8)
NEK3 (human) = NEK3 (human) (UniProt P51956)
MINK1 (human) = MINK1 (human) (UniProt Q8N4C8)
TNK2 (human) = TNK2 (human) (UniProt Q07912)
SRPK3 (human) = SRPK3 (human) (UniProt Q9UPE1)
Chain of SRPK3 (human) (Q9UPE1 whole entry, looked up): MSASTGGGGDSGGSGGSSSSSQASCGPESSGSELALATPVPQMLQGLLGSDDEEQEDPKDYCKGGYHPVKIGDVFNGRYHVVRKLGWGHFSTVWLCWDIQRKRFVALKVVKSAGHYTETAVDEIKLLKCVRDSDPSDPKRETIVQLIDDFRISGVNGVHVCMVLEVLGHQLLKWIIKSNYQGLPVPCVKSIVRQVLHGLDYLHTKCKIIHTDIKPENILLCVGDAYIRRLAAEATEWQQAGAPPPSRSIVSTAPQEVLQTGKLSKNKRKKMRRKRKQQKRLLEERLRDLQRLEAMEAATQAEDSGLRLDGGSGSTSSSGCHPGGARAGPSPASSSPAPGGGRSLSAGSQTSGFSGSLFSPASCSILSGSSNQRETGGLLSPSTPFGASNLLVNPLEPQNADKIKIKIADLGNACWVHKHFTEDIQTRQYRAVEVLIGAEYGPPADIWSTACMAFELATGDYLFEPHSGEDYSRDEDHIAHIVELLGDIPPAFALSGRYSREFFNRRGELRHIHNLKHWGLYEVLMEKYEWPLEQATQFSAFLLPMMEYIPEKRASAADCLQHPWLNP

CLK1 (human) = CLK1 (human) (UniProt P49759)
Chain of CLK1 (human) (P49759 whole entry, looked up): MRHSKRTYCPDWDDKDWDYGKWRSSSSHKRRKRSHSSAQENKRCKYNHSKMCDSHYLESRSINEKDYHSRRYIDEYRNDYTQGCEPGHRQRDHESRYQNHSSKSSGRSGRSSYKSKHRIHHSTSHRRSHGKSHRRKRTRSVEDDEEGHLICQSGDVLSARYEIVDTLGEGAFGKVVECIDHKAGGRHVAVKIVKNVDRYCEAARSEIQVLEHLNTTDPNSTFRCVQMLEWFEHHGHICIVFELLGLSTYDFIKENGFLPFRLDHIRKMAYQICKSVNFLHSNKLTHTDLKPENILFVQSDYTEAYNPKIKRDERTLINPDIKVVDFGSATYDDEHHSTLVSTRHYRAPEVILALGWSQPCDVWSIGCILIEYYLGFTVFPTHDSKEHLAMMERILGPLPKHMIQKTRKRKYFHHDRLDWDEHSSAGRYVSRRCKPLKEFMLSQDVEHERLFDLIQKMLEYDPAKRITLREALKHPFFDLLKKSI

MAPK1 (human) = MAPK1 (human) (UniProt P28482)
NEK7 (human) = NEK7 (human) (UniProt Q8TDX7)
Chain of NEK7 (human) (Q8TDX7 whole entry, looked up): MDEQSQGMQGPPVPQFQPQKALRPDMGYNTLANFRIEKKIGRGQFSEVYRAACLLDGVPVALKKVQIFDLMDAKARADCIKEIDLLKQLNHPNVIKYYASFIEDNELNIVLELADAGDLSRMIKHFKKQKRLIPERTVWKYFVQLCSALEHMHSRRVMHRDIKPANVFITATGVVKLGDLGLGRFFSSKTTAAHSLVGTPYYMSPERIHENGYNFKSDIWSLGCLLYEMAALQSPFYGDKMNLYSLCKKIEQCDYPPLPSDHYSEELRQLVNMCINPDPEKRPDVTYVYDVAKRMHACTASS

How did the residual activity (TEK (human)) turn out when `O=C1Cc2c([nH]c3ccc(Br)cc23)-c2ccccc2N1` was run?
The residual activity was 106%.

What about the residual activity (ULK1 (human)) of the same compound?
Its residual activity is 93.8%.

What about the residual activity (CDK7 CCNH MNAT1 (human)) of the same compound?
The residual activity was 95.1%.

And the residual activity (GRK4 (human))?
Its residual activity is 97.9%.

What about the residual activity (CSNK1E (human)) of the same compound?
The residual activity was 103%.

What about the residual activity (MAP3K11 (human)) of the same compound?
The residual activity was 49.4%.

What about the residual activity (CDK9 CCNK (human)) of the same compound?
Its residual activity is 31.5%.

And the residual activity (HIPK2 (human))?
The residual activity was 107%.

What about the residual activity (PRKACA (human)) of the same compound?
Its residual activity is 102%.

What about the residual activity (ABL1 (human)) of the same compound?
The residual activity was 82.6%.

What about the residual activity (CAMK4 (human)) of the same compound?
Its residual activity is 98.1%.

And the residual activity (CAMK2G (human))?
Its residual activity is 116%.

And the residual activity (SGK2 (human))?
The residual activity was 98.9%.

What about the residual activity (BRSK2 (human)) of the same compound?
The residual activity was 62.7%.

And the residual activity (ROCK1 (human))?
The residual activity was 96.1%.

And the residual activity (SRPK2 (human))?
The residual activity was 98.9%.

And the residual activity (DYRK2 (human))?
Its residual activity is 107%.

And the residual activity (RPS6KA6 KD1 KD2 (human))?
Its residual activity is 95.9%.

What about the residual activity (FGFR3 (human)) of the same compound?
Its residual activity is 101%.

And the residual activity (RPS6KB2 (human))?
The residual activity was 99.4%.

What about the residual activity (CLK3 (human)) of the same compound?
Its residual activity is 99.3%.

What about the residual activity (DYRK3 (human)) of the same compound?
The residual activity was 113%.

And the residual activity (MAP3K10 (human))?
Its residual activity is 79.3%.

What about the residual activity (BTK (human)) of the same compound?
The residual activity was 98%.

And the residual activity (STK10 (human))?
Its residual activity is 89.8%.

And the residual activity (CSNK1A1 (human))?
Its residual activity is 95.1%.

And the residual activity (CSNK2A1 (human))?
The residual activity was 79.1%.

And the residual activity (MAP3K3 (human))?
Its residual activity is 93.2%.

And the residual activity (RIPK2 (human))?
The residual activity was 75.9%.

And the residual activity (ACVRL1 (human))?
The residual activity was 99%.

What about the residual activity (GSK3B (human)) of the same compound?
Its residual activity is 19.7%.

What about the residual activity (EPHA4 (human)) of the same compound?
The residual activity was 96.1%.

What about the residual activity (ERBB2 (human)) of the same compound?
The residual activity was 103%.

And the residual activity (DYRK4 (human))?
The residual activity was 97.2%.

And the residual activity (PNCK (human))?
Its residual activity is 99.6%.

What about the residual activity (NEK3 (human)) of the same compound?
Its residual activity is 96.2%.

And the residual activity (MINK1 (human))?
Its residual activity is 29.6%.

What about the residual activity (TNK2 (human)) of the same compound?
Its residual activity is 38.8%.

And the residual activity (SRPK3 (human))?
The residual activity was 100%.

And the residual activity (CLK1 (human))?
The residual activity was 96.7%.

And the residual activity (MAPK1 (human))?
The residual activity was 90.5%.

And the residual activity (NEK7 (human))?
Its residual activity is 94.3%.

How did the residual activity (TEK (human)) turn out when `O=C1Nc2ccccc2/C1=C1/Nc2ccccc2/C1=N\OCCC(O)CO` (centres undefined) was run?
Its residual activity is 101%.

What about the residual activity (ULK1 (human)) of the same compound?
Its residual activity is 98.3%.

And the residual activity (CDK7 CCNH MNAT1 (human))?
The residual activity was 77.9%.

What about the residual activity (GRK4 (human)) of the same compound?
Its residual activity is 74.7%.

What about the residual activity (CSNK1E (human)) of the same compound?
Its residual activity is 43.2%.

What about the residual activity (MAP3K11 (human)) of the same compound?
The residual activity was 10.5%.

What about the residual activity (CDK9 CCNK (human)) of the same compound?
The residual activity was 33.2%.

What about the residual activity (HIPK2 (human)) of the same compound?
Its residual activity is 97.6%.

What about the residual activity (PRKACA (human)) of the same compound?
Its residual activity is 89.1%.

And the residual activity (ABL1 (human))?
The residual activity was 71.9%.

And the residual activity (CAMK4 (human))?
The residual activity was 93.6%.

What about the residual activity (CAMK2G (human)) of the same compound?
Its residual activity is 35.3%.

And the residual activity (SGK2 (human))?
The residual activity was 75.8%.

And the residual activity (BRSK2 (human))?
The residual activity was 33.3%.

And the residual activity (ROCK1 (human))?
The residual activity was 101%.

And the residual activity (SRPK2 (human))?
Its residual activity is 86.5%.

What about the residual activity (DYRK2 (human)) of the same compound?
Its residual activity is 61.4%.

What about the residual activity (RPS6KA6 KD1 KD2 (human)) of the same compound?
The residual activity was 16.4%.

What about the residual activity (FGFR3 (human)) of the same compound?
The residual activity was 45.8%.

What about the residual activity (RPS6KB2 (human)) of the same compound?
The residual activity was 106%.

And the residual activity (CLK3 (human))?
Its residual activity is 16.1%.

What about the residual activity (DYRK3 (human)) of the same compound?
The residual activity was 105%.

And the residual activity (MAP3K10 (human))?
The residual activity was 86.9%.

And the residual activity (BTK (human))?
Its residual activity is 24.1%.

What about the residual activity (STK10 (human)) of the same compound?
Its residual activity is 52.1%.

What about the residual activity (CSNK1A1 (human)) of the same compound?
Its residual activity is 84.8%.

And the residual activity (CSNK2A1 (human))?
Its residual activity is 57.6%.

What about the residual activity (MAP3K3 (human)) of the same compound?
Its residual activity is 87.8%.

And the residual activity (RIPK2 (human))?
The residual activity was 62.8%.

What about the residual activity (ACVRL1 (human)) of the same compound?
Its residual activity is 103%.

What about the residual activity (GSK3B (human)) of the same compound?
Its residual activity is 12.6%.

What about the residual activity (EPHA4 (human)) of the same compound?
Its residual activity is 77.9%.

And the residual activity (ERBB2 (human))?
Its residual activity is 95.3%.

And the residual activity (DYRK4 (human))?
The residual activity was 100%.

What about the residual activity (PNCK (human)) of the same compound?
The residual activity was 101%.

And the residual activity (NEK3 (human))?
Its residual activity is 102%.

What about the residual activity (MINK1 (human)) of the same compound?
Its residual activity is 21%.

What about the residual activity (TNK2 (human)) of the same compound?
Its residual activity is 4.93%.

What about the residual activity (SRPK3 (human)) of the same compound?
The residual activity was 59.5%.

And the residual activity (CLK1 (human))?
The residual activity was 36.6%.

What about the residual activity (MAPK1 (human)) of the same compound?
Its residual activity is 89.8%.

What about the residual activity (NEK7 (human)) of the same compound?
Its residual activity is 98.9%.
